Laboratory results taken from patent EP3501511A1, “MEANS FOR PREVENTING AND TREATING BRAIN METASTASIS” (Fundación Centro Nacional De Investigaciones Oncológicas …, priority 2017, dated 2019).

Tests used:
482N1 = assay: cKO-Stat3 brain slice cultures with established metastases treated with 4OH-Tamoxifen (BLI); assay type: cell-based, mouse; settings: 4OH-Tamoxifen 1 µM; n≥ 4 brain slices per condition, P=0.013
Excerpt: (§1) To test the functional contribution of pStat3+ RA in brain metastasis we generated GFAP-Cre/ERT2;Stat3loxP/loxP (cKO-Stat3) mice in which syngeneic brain metastatic (BrM) cells, labeled with Luciferase and Gfp (Green fluorescent protein), were intracardiacally inoculated. We used two BrM models including lung adenocarcinoma model (482N1) and melanoma model (B16/F10-BrM). These syngeneic models have gained brain tropism while retaining an aggressive extracranial metastatic potential (Valiente, M. et al. Cell 156, 1002-1016 (2014) and also as disclosed herein). […] We confirmed Stat3 depletion from RA under these experimental conditions (Fig.2). […] In order to analyze the effect of Stat3 deletion in RA once brain metastases have developed, and given the limited time available in vivo before mice reach the humane endpoint, we cultured ex vivo cKO-Stat3 brain slices containing 2 weeks old lesions grown in mice (Fig. 4A). […]
(§2) Treatments to brain slices were given once during the experiment (4OH-Tmx, 1 µM, Sigma-Aldrich, ref. H7904; WP1066, 10 µM, Merck, ref. 573097; Doxycycline, 1 µg/ml, Sigma-Aldrich, ref. D9891; silibinin, 100 µM, Sigma-Aldrich, ref. S0417) by adding them to the media. […] Analysis of the knockdown level in H2030-BrM (Fig. 4F) was analyzed in a homogenate containing the mouse brain tissue and human cancer cells. […]

B16/F10-BrM [1] = assay: as above; assay type: cell-based, mouse; settings: 4OH-Tamoxifen 1 µM; n≥ 8 brain slices per condition, P=0.012
Excerpt: as §1, §2

Mouse astrocytes = assay: Astrosphere assay; assay type: cell-based
Protocol: Mouse astrocytes were treated with conditioned media from BrM cell lines or with recombinant mouse protein including Egf (0.01 µg/ml, R&D Systems, ref. 2028-EG- 200), Mif (0.1 µg/ml, R&D Systems, ref. 1978-MF-0257CF) and Tgfα (0.1 µg/ml, R&D Systems, ref. 239-A-100) during 96 hours. After this treatment 10^4 astrocytes were seeded in low attachment plates and incubated for seven days in the presence of the same media to evaluate the ability to form astrospheres. Conditioned media from BrM cell lines were obtained after 3 days incubation of cancer cells in DMEM supplemented with 0.25 % FBS, 2 mM L-Glutamine, 100 IU/ml penicillin/streptomycin and […] amphotericin B. After being collected, the media was filtered and added to astrocytes. Conditioned media from astrospheres was collected, filtered and added to activated CD8 cells (Fig. 7P) or wild type brain slices (Fig. 7T).

B16/F10-BrM [2] = assay: Tamoxifen-induced Stat3 depletion in reactive astrocytes of cKO-Stat3 mice inoculated with B16/F10-BrM; assay type: in vivo
Excerpt: To test the functional contribution of pStat3+ RA in brain metastasis we generated GFAP-Cre/ERT2;Stat3loxP/loxP (cKO-Stat3) mice in which syngeneic brain metastatic (BrM) cells, labeled with Luciferase and Gfp (Green fluorescent protein), were intracardiacally inoculated. We used two BrM models including lung adenocarcinoma model (482N1) and melanoma model (B16/F10-BrM). […] In order to analyze the effect of Stat3 deletion in RA once brain metastases have developed, and given the limited time available in vivo before mice reach the humane endpoint, we cultured ex vivo cKO-Stat3 brain slices containing 2 weeks old lesions grown in mice (Fig. 4A).
All animal experiments were performed in accordance with a protocol approved by the CNIO, Instituto de Salud Carlos III and Comunidad de Madrid Institutional Animal Care and Use Committee. Athymic nu/nu (Harlan), and C57BL/6 mice 4-6 weeks of age were used. cKO-Stat3 was generated by breeding GFAP-CRE/ERT2 (B6.Cg- Tg(GFAP-cre/ERT2)505Fmv/J, Jackson Labs, ref. 012849) with Stat3loxP/loxP16.
Brain metastatic derivative of a syngeneic B16/F10 model (B16/F10-BrM) was established according to a previous protocol (Bos, P. D. et al. Nature 459, 1005-1009 (2009); Nguyen, D. X. et al. Cell 138, 51-62 (2009)). Brain colonization assays were performed injecting 100 µl of PBS into the left ventricle containing 100,000 cancer cells. Brain colonization was analyzed in vivo and ex vivo by bioluminescence imaging. Anesthetized mice (Isofluorane) were injected retro-orbitally with D-Luciferin (150 mg/kg) and imaged with an IVIS Spectrum Xenogen machine (Caliper Life Sciences). Bioluminescence analysis was performed using Living Image software, version 3. […] Silibinin in the formula of Legasil® was administered by oral gavage daily the same day cancer cells were inoculated (200mg/kg) and until mice reached the endpoint of the experiment.

[3] = Tamoxifen treated cKO-Stat3 mice, n=7 metastases

CC/C(=C(\c1ccc(O)cc1)c1ccc(OCCN(C)C)cc1)c1ccccc1 [4OH-Tamoxifen]
growth of established metastases scored with BLI (482N1): impaired the growth of established metastases | growth of established metastases scored with BLI (B16/F10-BrM [1]): impaired the growth of established metastases | formation of astrospheres (Mouse astrocytes; cKO-Stat3 derived astrocytes induced by the cytokine cocktail, 4OH-Tamoxifen 1µM): unable to generate astrospheres

C[C@H](NC(=O)/C(C#N)=C/c1cccc(Br)n1)c1ccccc1 [WP1066]
formation of astrospheres (Mouse astrocytes; primary astrocytes in the presence of the cytokine cocktail (Egf, Tgfα, Mif)): impairs the formation of astrospheres

CC/C(=C(\c1ccccc1)c1ccc(OCCN(C)C)cc1)c1ccccc1 [Tamoxifen]
metastases of Score 0 (no pStat3 signal) in the surrounding microenvironment (B16/F10-BrM [2]; Tamoxifen treated cKO-Stat3 mice): 66.7% | metastases of Score 1 (low pStat3 signal) in the surrounding microenvironment (B16/F10-BrM [2]; [3]): 22.2% | metastases of Score 2 (high pStat3 signal) in the surrounding microenvironment (B16/F10-BrM [2]; [3]): 11.1% | CD74+/Iba1+ cells infiltrating metastasis (B16/F10-BrM [2]; cKO-Stat3 brains treated with tamoxifen): less CD74+/lba1+ cells infiltrating metastasis
